This is an account of results in patent US12275731B2, “Azaindole inhibitors of wild-type and mutant forms of LRRK2” (DANA-FARBER CANCER INSTITUTE, INC., priority 2018, dated 2025).

The structures appear in SMILES notation.

Holding throughout (test): KinomeScan profiling
Common to all, as to type: binding

For one test, the target named is T1, PIP5K2C (Homo sapiens, UniProt Q8TBX8).
T1 construct: purchased KinomeScan® (panel service)
T1 sequence (Q8TBX8 1-421): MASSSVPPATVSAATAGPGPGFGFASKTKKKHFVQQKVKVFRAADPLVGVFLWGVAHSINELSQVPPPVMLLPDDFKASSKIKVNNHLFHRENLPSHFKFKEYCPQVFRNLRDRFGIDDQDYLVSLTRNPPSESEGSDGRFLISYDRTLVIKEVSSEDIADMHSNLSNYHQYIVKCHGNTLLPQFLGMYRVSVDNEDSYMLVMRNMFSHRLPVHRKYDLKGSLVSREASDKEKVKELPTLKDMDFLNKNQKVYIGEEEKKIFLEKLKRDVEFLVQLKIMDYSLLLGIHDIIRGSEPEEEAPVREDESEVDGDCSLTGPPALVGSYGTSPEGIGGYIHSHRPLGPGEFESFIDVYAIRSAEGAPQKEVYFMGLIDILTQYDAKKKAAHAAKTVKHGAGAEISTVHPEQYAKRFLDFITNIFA
Conditions: read-out: % control. The procedure, abridged:
(§1)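 Normalised RLU (% control; DMSO 100%, positive control 0%) was measured for compounds dosed at 1 μM over 468 kinases, active cut-off <35%.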

A further test deals with LCK (Homo sapiens, UniProt P06239). As to conditions: read-out: % control. Put shortly:
as §1

In a further test the target is T2, HIPK4 (Homo sapiens, UniProt Q8NE63).
T2 sequence (Q8NE63 1-616): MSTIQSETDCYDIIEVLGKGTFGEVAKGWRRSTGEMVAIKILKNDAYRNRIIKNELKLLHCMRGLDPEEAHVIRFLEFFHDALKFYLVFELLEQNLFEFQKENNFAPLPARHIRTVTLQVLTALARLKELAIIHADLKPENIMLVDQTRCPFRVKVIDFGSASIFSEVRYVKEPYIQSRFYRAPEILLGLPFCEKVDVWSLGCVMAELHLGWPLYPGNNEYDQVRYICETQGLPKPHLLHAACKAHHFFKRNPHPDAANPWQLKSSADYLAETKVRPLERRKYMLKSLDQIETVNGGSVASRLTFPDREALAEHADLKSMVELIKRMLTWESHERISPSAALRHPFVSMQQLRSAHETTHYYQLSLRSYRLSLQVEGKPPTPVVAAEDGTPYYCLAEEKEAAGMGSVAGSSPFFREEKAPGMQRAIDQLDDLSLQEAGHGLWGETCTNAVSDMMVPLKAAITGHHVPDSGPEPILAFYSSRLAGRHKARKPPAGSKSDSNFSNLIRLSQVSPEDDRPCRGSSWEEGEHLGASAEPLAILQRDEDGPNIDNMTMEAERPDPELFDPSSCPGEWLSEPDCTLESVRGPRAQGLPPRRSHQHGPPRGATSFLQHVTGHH
Conditions: HIPK4, 1 μM; read-out: % control. Put shortly:
as §1

Another test addresses PRKCH (Homo sapiens, UniProt P24723). As to conditions: read-out: % control. Put shortly: as §1
A further test addresses PAK6 (Homo sapiens, UniProt Q9NQU5). Conditions: PAK6, 1 μM; read-out: % control. Put shortly: as §1
The next test deals with T3, ULK2 (Homo sapiens, UniProt Q8IYT8).
T3 sequence (Q8IYT8 1-1036): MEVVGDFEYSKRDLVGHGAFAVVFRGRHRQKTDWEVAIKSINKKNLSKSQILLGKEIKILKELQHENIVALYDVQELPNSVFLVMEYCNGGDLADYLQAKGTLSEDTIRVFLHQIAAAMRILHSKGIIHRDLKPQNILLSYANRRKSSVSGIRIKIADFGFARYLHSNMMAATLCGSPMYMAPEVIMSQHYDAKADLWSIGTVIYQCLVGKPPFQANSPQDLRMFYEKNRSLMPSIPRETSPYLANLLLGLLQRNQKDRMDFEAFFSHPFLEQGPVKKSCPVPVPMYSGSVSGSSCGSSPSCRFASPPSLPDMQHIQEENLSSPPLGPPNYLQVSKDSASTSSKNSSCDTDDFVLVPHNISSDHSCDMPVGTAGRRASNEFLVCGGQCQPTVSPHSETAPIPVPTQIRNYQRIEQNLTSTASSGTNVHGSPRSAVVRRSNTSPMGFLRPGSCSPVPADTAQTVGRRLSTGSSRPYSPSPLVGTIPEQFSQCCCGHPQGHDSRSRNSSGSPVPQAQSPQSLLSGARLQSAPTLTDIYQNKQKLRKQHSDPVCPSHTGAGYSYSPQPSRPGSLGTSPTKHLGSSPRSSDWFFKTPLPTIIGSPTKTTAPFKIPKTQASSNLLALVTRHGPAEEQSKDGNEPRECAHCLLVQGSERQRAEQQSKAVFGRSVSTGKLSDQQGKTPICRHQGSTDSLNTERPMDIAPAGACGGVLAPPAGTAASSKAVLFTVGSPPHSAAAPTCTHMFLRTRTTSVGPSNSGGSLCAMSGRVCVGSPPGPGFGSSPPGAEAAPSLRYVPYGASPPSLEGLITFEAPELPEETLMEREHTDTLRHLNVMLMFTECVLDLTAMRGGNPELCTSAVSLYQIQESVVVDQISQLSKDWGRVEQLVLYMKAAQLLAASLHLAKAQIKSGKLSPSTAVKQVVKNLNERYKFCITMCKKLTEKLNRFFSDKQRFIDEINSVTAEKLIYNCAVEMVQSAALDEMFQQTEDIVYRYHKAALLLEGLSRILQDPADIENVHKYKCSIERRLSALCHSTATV
Conditions: ULK2, 1 μM; read-out: % control. Put shortly: as §1

Chain of PAK6 (Q9NQU5 whole entry): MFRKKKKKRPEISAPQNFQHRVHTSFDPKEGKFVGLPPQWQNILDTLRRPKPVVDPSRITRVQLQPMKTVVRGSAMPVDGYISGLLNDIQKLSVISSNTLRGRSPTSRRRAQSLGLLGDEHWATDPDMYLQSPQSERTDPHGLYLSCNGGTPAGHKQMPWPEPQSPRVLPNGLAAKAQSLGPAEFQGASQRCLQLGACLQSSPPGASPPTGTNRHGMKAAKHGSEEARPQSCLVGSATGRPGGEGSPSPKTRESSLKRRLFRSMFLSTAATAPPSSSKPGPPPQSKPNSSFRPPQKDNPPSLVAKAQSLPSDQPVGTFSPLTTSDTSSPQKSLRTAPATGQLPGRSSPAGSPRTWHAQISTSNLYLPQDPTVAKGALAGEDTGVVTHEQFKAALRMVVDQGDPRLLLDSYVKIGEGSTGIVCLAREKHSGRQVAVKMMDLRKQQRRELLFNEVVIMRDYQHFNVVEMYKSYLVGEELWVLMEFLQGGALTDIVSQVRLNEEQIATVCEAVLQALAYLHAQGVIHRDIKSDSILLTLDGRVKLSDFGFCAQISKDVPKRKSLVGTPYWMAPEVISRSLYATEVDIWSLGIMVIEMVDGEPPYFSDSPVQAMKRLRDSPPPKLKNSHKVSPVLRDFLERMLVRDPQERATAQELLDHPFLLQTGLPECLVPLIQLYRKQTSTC
Chain of LCK (P06239 whole entry): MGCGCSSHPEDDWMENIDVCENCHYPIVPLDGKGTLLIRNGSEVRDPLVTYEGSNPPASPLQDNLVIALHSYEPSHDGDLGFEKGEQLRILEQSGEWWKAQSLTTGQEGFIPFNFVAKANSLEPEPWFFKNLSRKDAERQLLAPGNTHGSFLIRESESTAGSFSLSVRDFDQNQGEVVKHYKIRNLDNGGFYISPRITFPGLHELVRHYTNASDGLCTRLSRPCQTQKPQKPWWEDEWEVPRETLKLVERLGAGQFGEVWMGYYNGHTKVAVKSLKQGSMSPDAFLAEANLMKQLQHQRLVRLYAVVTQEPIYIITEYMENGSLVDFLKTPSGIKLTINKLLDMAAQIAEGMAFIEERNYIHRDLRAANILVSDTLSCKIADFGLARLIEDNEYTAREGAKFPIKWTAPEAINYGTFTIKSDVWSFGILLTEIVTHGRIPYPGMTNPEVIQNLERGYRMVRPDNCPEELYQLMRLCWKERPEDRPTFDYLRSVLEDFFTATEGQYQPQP
Chain of PRKCH (P24723 whole entry): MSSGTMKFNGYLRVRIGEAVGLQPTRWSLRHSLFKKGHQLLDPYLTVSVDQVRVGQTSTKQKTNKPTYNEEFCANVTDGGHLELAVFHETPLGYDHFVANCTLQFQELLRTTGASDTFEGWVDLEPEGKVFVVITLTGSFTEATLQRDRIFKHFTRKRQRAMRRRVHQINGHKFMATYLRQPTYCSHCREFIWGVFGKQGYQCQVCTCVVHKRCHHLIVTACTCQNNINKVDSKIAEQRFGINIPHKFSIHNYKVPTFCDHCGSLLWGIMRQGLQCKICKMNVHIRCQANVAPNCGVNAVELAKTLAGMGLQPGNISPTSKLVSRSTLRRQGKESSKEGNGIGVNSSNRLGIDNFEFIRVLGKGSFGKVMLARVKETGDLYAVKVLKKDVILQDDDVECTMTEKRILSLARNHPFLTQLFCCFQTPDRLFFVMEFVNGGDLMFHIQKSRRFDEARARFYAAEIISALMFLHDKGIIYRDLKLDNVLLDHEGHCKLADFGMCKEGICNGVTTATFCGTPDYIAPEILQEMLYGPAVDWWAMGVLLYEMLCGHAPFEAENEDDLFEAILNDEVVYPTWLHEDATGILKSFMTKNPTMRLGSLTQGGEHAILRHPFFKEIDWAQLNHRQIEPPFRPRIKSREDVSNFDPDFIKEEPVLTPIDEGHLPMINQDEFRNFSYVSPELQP

Consider `CNc1c(-c2ccc(C(=O)N3CCC(N4CCOCC4)CC3)cc2)cnc2[nH]cc(Cl)c12` [Compound 96, (4-(3-chloro-4-(methylamino)-1H-pyrrolo[2,3-b]pyridin-5-yl)phenyl)(4-morpholinopiperidin-1-yl)methanone], for which the remaining binding at 1 µM at PIP5K2C was 63%; at LCK, 100%; on HIPK4, 64%; at PRKCH it was 92%; on PAK6 it was 100%; at ULK2 it was 8.7%.

Consider `O=C(c1ccc(-c2cnc3[nH]cc(Cl)c3c2NC2CCCC2)cc1)N1CCC(N2CCOCC2)CC1` [Compound 101, (4-(3-chloro-4-(cyclopentylamino)-1H-pyrrolo[2,3-b]pyridin-5-yl)phenyl)(4-morpholinopiperidin-1-yl)methanone], for which the remaining binding at 1 µM came to 77% on PIP5K2C; 100% at LCK; 79% at HIPK4; 73% on PRKCH; 99% on PAK6; 98% on ULK2.

In the case of `CNc1c(-c2cnn([C@H]3CCN(C(C)=O)C[C@@H]3F)c2)cnc2[nH]cc(Cl)c12` [Compound 77, 1-((3S,4S)-4-(4-(3-chloro-4-(methylamino)-1H-pyrrolo[2,3-b]pyridin-5-yl)-1H-pyrazol-1-yl)-3-fluoropiperidin-1-yl)ethan-1-one], the remaining binding at 1 µM on PIP5K2C is 93%; on LCK, 96%; on HIPK4, 84%; at PRKCH it was 83%; on PAK6, 99%; at ULK2, 15%.
